“Also recorded” adds a separate entry of the source.
Key:
[1] = L-cysteine adduction kinetics in vitro (HPLC); type: physicochemical; details: pH 7.4, 37° C.; for NMBA peak area / [NMBA] remaining / ln* = ln (([NMBA]t[L-cysteine]t=0)/([NMBA]t=0[L-cysteine]t)): CW 002 1000 μg/mL + 1.05 equiv. L-cysteine
Protocol: In a second experiment, to evaluate degradation in the presence of L-cysteine, buffered solutions (pH 7.4) of gantacurium, CW 002 or CW 011 were freshly prepared at 37° C. to give experimental concentrations of 1000 μg/mL (CW 002 and CW 011) and 200 μg/mL (gantacurium), after addition to and mixing with a 5% Molar excess of L-cysteine at time=0.
The concentration of neuromuscular blocking agent/parent compound remaining at specified time points after mixing was determined by high performance liquid chromatography. The concentration of blocking agent at each time point was determined from a separately prepared reaction mixture, due to the rapid rate of L-cysteine adduction. The reaction rate constant for the second order reaction of each neuromuscular blockade agent (NMBA) with L-cysteine was derived by plotting the natural log of ([NMBA]t[L-cysteine]t=0/[NMBA]t=0[L-cysteine]t) vs. time.
Concentrations selected were 200, 100 and 50 μg/ml which are approximately proportional to the relative potencies (ED 95) of gantacurium, CW 002 and CW 011 respectively. A degradation (adduction) pathway in the presence of L-cysteine for each of the three compounds was proposed.
The reaction of L-cysteine with CW 002, CW 011 or gantacurium is first order in the case of both the neuromuscular blockade agent (NMBA) and L-cysteine, represented by the rate equation (1). d[Adduct]/dt=−d[NMBA]/dt=ka[NMBA][L-cysteine] (1)
Calculation of the L-cysteine adduction half time requires experimental derivation of the reaction rate constant, ka, for each compound. The initial concentrations of NMBA and L-cysteine are unequal in the experiments conducted for this study, thus integration of equation 1 gives equation 2, where [NMBA]0 is the NMBA concentration at time equals 0 and [NMBA]t is the NMBA concentration at a time point, t.
[formula] A plot of the ln(([NMBA]t [L-cysteine]0)/([NMBA]0 [L-cysteine]t)) versus time (ln* vs. t) gives a line, with slope equal to ka([NMBA]0−[L-cysteine]0). An adduction reaction half time can be calculated by solving for ka to be used in equation 3.
NMBA standard solutions were prepared by a method similar to that used to prepare hydrolysis standards. The standards were prepared at 1000 μg/mL for CW 002 and CW 011 and 200 μg/mL for gantacurium.
Solutions used for determination of NMBA concentration at the reported times for CW 002 and CW 011 were prepared as follows: L-cysteine hydrochloride monohydrate was charged to a volumetric flask in de-ionized water. A 5 mL aliquot of the L-cysteine solution (1.05 equiv. L-cysteine with respect to NMBA) was transferred by volumetric pipette to a flask held at 37.0±0.3° C. CW 002 or CW 011 was then charged to a separate 25 mL volumetric flask and diluted to volume with pH 7.4 phosphate buffer at 37.0° C. The NMBA solution was then immediately transferred to the flask containing L-cysteine to give an initial NMBA concentration of 1000 μg/mL. Solutions used for determination of gantacurium concentration versus time were prepared in a similar manner to give an initial concentration of 200 μg/mL. T=0 was defined as the time of addition of NMBA solution to L-cysteine solution. The times listed in the results table show the point of HPLC sample injection following mixing of L-cysteine and NMBA at time=0 (Table 1, below).
Rate constants were calculated using equation (3) and the slope of the trend line derived from each data set. The strong linear correlation of the data within each set supports the use of second order kinetics for analysis of the cysteine adduction reactions.
Reaction half times were calculated using equation 4 and the experimentally determined rate constants. The initial NMBA concentrations were chosen to reflect the relative potency observed in vivo.

[2] = tested on: twitch of the extensor digitorum; assay: Reversal of neuromuscular blockade by L-cysteine or neostigmine in anesthetized rhesus monkeys; type: in vivo, rhesus monkeys (Macaca mulatta)
Protocol: A control dose of 0.15 mg/kg CW 002 was allowed to recover spontaneously to TOF 110-120%. A second dose was given 60 minutes later, followed one minute afterwards by either neostigmine (0.05 mg/kg+atropine 0.05 mg/kg) or L-cysteine (10, 20, 30 or 50 mg/kg). Total duration and 5-95% recovery intervals were compared during spontaneous recovery vs. antagonism by L-cysteine or reversal by neostigmine.
This series of paired comparisons was designed to generate dose-response data comparing spontaneous recovery of high doses of CW 011 (from 4 to 64× ED95) versus immediate antagonism at +1 min by an optimal dose of L-cysteine (50 mg/kg), previously determined during studies of immediate antagonism of CW 002. This experiment was done to explore the limits of chemical antagonism by L-cysteine of these olefinic diester neuromuscular blocking drugs, using CW 011 as a typical example with an intermediate duration of action. Five groups of animals first received a control dose of CW 011 at 4, 8, 16, 32 or 64× ED 95 (0.1 to 1.6 mg/kg). Sixty minutes after spontaneous recovery of the control dose to TOF 110-120%, the same dose was repeated, followed 1 min later by L-cysteine (50 mg/kg). Total duration of action and 5-95% recovery interval were compared during spontaneous recovery and following antagonism by L-cysteine
The reversal of neuromuscular blockade by cysteine (5-50 mg/kg i.v.) was studied. Reversal was tested as follows: full paralysis was induced by injection of a dose of approximately 2-6× ED 95 of the compound in question. After spontaneous recovery of this dose, a second identical dose was given 15-30 min later. Cysteine was then given at +1 min after injection of the neuromuscular blocking drug at a point where no twitch was apparent (“immediate reversal”) or at the beginning of recovery from neuromuscular blockade at two percent twitch height (“classical reversal”). Comparisons were made among compounds with respect to rapidity and ease of cysteine reversal, by comparing 5-95% recovery times, and total durations of action (injection to 95% twitch recovery). Spontaneous recovery was compared with cysteine-accelerated recovery. […]

[3] = tested on: twitch contractions of the extensor digitorum muscle; assay: Rhesus monkey anesthesia bioassay for potency and duration (substituent and stereochemical comparison, preliminary studies); type: in vivo; details: rhesus monkeys; for Potency (ED95 mg/kg): intravenously; for Potency (ED95 mg/kg) / Duration at 4X ED95 / Duration (minutes), from injection to 95% twitch recovery: preliminary studies; for Duration at 4X ED95: head prints no unit (column beside it: minutes); for Duration (minutes), from injection to 95% twitch recovery: dose not printed (beside ED95 column)
Protocol: Two stereoisomeric structures, CW 002 (R-trans, R-trans), and CW 003 (R-cis, R-cis) were tested in the rhesus monkey anesthesia bioassay for potency and duration. A third compound, CW 001 (R-trans, R-trans) bearing an additional methoxyl group on each of the two benzyl groups in the molecule, was also tested.
Rhesus monkeys were anesthetized with ketamine (7.5 mg/Kg) given intramuscularly or intravenously. Anesthesia was maintained with a mixture of isoflurane (1.5%), nitrous oxide (60%) and oxygen (40%). The common peroneal nerve was stimulated supramaximally with square wave pulses of 0.2 m sec duration at a rate of 0.15 Hz. Twitch contractions were recorded via the tendon of the extensor digitorum muscle.
In all animals, the trachea was intubated and ventilation was controlled at 12-15 ml/kg, 18-24 breaths per minute. A peripheral vein and artery were cannulated for drug administration and for recording of arterial pressure, respectively. In preliminary studies a neuromuscular blocking agent having one of the following structures was administered intravenously.

[4] = tested on: twitch of the extensor digitorum; assay: Neuromuscular blocking potency and duration in anesthetized rhesus monkeys; type: in vivo, rhesus monkeys (Macaca mulatta); details: for Duration (± SD/SEM), from injection to recovery of twitch to 95% of baseline: spontaneous recovery
Protocol: Experiments were approved by the Institutional Animal Care and Use Committee of Weill Medical College of Cornell University (New York, N.Y.) and of Albany Medical College (Albany, N.Y.), where the studies were conducted. A colony of 10 adult male monkeys (Macaca mulatta) weighing 8-18 kg was studied at ˜6 week intervals. Animals were housed and cared for in accordance with the Guide for Care and Use of Laboratory Animals (National Research Council, Washington, D.C.). They were fed a standard Old World monkey diet, enriched with fruits and vegetables, and other dietary novelties and were followed throughout the study to verify normal health by physical examination, body weight, and clinical laboratory studies (Complete Blood Count, Blood Urea Nitrogen and creatinine, and liver function tests).
On the day of each study, monkeys received ketamine (7-10 mg/kg i.m.) followed by tracheal intubation under topical anesthesia with 4% lidocaine. Ventilation was controlled at 10 mL/kg and 20 breaths/min with isoflurane (1.0-2.0%) and N2O/O2 (2:1 mixture). Ringers lactate was administered at ˜10 ml kg^−1 h^−1. Arterial pressure was monitored from a femoral, superficial tibial, or radial (22 gauge) cannula. Heart rate was measured by tachograph from the arterial pulse wave. Core temperature was kept at 36.5-38.0° C. by warming blankets. Electrocardiogram and pulse oximetry were monitored continuously.
Needle electrodes (25 gauge) transmitting square-wave pulses of 0.2 msec duration at supramaximal voltage which were generated by a Grass S-88 stimulator (Grass Instruments, Quincy, Mass.) were placed at the peroneal nerve at the knee to elicit twitch responses of the extensor digitorum of the foot at 0.15 Hz. A small slip (10-20%) of the tendon was dissected free under sterile technique and tied to a Grass FT 10 force transducer (Grass Instruments, Quincy, Mass.) at a baseline tension of 50 gm. Train-of four stimulation (TOF, 2 Hz for 2 sec) was interposed at appropriate points, especially 1-2 min prior to NMBA dosing and following recovery of twitch to 95% of baseline, where TOF was subsequently evaluated every 1-2 min.
Recordings of circulatory and neuromuscular data were made on a Grass 7B polygraph (Grass Instruments). A baseline period of 15-20 min was allowed for stabilization of recordings prior to dosing.^2
Dose-response curves for twitch blockade by gantacurium, CW 002, CW 011, cisatracurium, CW002-Cys, NB 938-69, NB 1064-81, NB 802-17 (CW 001), NB 832-65, and NB 1163-79, structures of which are all shown above, were generated as follows. […] Successive doses were separated by at least three estimated half lives beyond complete recovery of the previous dose to TOF of 110-120%, which is normal for these monkeys. Only the first one or two doses yielding 5 to 99% blockade were included from any single experiment for computation of dose-response data.
Comparative studies of spontaneous recovery versus antagonism/reversal were done at least 3 estimated half-lives following dose-response studies.
ED 50 and ED 95 were computed from the regression of log dose vs. the logit of percentage blockade of twitch.
CW002-Cys, the L-cysteine adduct of CW 002, was available in limited quantity and was administered in cumulative fashion to three animals to compare approximate potency and duration of effect versus its parent compound CW 002.

COc1ccc(C[C@@H]2c3cc(OC)c(OC)cc3CC[N@@+]2(C)CCCOC(=O)/C=C/C(=O)OCCC[N@+]2(C)CCc3cc(OC)c(OC)cc3[C@H]2Cc2ccc(OC)c(OC)c2)cc1OC [CW 002]
NMBA peak area ([1]; Trial 1, 142 Sec): 2746.0 mAU's
[NMBA] remaining ([1]; Trial 1, 142 Sec): 224 µM
ln* = ln (([NMBA]t[L-cysteine]t=0)/([NMBA]t=0[L-cysteine]t)) ([1]; Trial 1, 142 Sec): −0.240
NMBA peak area ([1]; Trial 2, 170 Sec): 2350.7 mAU's
[NMBA] remaining ([1]; Trial 2, 170 Sec): 192 µM
ln* = ln (([NMBA]t[L-cysteine]t=0)/([NMBA]t=0[L-cysteine]t)) ([1]; Trial 2, 170 Sec): −0.277
NMBA peak area ([1]; Trial 3, 188 Sec): 2237.9 mAU's
[NMBA] remaining ([1]; Trial 3, 188 Sec): 183 µM
ln* = ln (([NMBA]t[L-cysteine]t=0)/([NMBA]t=0[L-cysteine]t)) ([1]; Trial 3, 188 Sec): −0.297
Plot Slope (ln* vs. time) ([1]; L-cysteine adduction, data of Table 1): −0.0012
ka, second order rate constant of L-cysteine adduction [1]: 14.3 M⁻¹ s⁻¹
half-life at 100 μg/ml ([1]; pH 7.4 phosphate buffer with L-cysteine, calculated at [NMBA]0 0.000102 M (100 μg/ml), read-out: L-cysteine adduction reaction half time t1/2): 11.4 min
immediate antagonism of blockade by L-cysteine (FIG. 1B) ([2]; CW 002 0.15 mg/kg (~4× ED 95), L-cysteine 10, 20, 30 or 50 mg/kg at +1 min): dose-related acceleration of recovery
immediate antagonism of blockade by neostigmine (FIG. 1A) ([2]; CW 002 0.15 mg/kg (~4× ED 95), neostigmine 0.05 mg/kg + atropine 0.05 mg/kg at +1 min): not achieved significantly faster than the spontaneous reversal; also recorded: did not shorten recovery
time to reversal of blockade with cysteine (FIG. 1B) ([2]; CW 002 0.15 mg/kg, all cysteine concentrations tested (10 to 50 mg/kg)): less than 6 minutes
time from cysteine administration to beginning of reversal (FIG. 1B) ([2]; CW 002 0.15 mg/kg, higher cysteine doses): 2 to 3 min
time to spontaneous reversal of blockade (FIG. 1) ([2]; CW 002 0.15 mg/kg, no reversal agent): more than 12 minutes
reversibility of neuromuscular blockade by thiol compounds ([2]; cysteine (L or D) or glutathione): reversible
effect of neostigmine given immediately after the blocking drug ([2]; immediate reversal): ineffective
classical antagonism of neuromuscular blockade by neostigmine ([2]; neostigmine given at beginning of spontaneous recovery, e.g. at 2% twitch height): showed antagonism
reversibility of effect by cysteine or glutathione [3]: reversible
Potency (ED95 mg/kg) [3]: 0.04 mg/kg
Duration at 4X ED95 [3]: 30-35
Duration (minutes), from injection to 95% twitch recovery [3]: 20 to 25 min

COc1cc2c(cc1OC)[C@@H](Cc1cc(OC)c(OC)c(OC)c1)[N@+](C)(CCCOC(=O)/C=C/C(=O)OCCC[N@+]1(C)CCc3cc(OC)c(OC)cc3[C@H]1Cc1cc(OC)c(OC)c(OC)c1)CC2 [NB 802-17]
Duration (± SD/SEM), from injection to recovery of twitch to 95% of baseline ([4]; administered dose 0.03 mg/kg): 35.0 ± 15.0 min
Duration (± SD/SEM), from injection to recovery of twitch to 95% of baseline ([4]; administered dose 0.10 mg/kg): 49.4 ± 5.8 min
ED 95 (± SD/SEM) ([4]; twitch blockade, monkeys under isoflurane, twitch at 0.15 Hz, calculated from dose-response curve): 0.033 ± 0.005 mg/kg
reversibility of effect by cysteine or glutathione [3]: reversible
Potency (ED95 mg/kg) [3]: 0.04 mg/kg
Duration at 4X ED95 [3]: 50-60
Duration (minutes), from injection to 95% twitch recovery [3]: 30 to 40 min
